In ChEMBL document CHEMBL5126603, “Discovery of Clinical Candidate CHF-6366: A Novel Super-soft Dual Pharmacology Muscarinic Antagonist and β2 Agonist (MABA) for the Inhaled Treatment of Respiratory Diseases” (J Med Chem, 2022):

Experiments:
[1] = biological target: 5-hydroxytryptamine receptor 2A (Homo sapiens) (UniProt P28223); experiment: Inhibition of 5-HT2a (unknown origin) at 10 uM relative to control
[2] = AUClast in Dunkin-Hartley guinea pig lung at 500 nmol/Kg, IT(Intratracheal) measured after 72 hrs by LC/MS-MS analysis; format: ADME, tissue-based, Cavia porcellus; settings: in vivo, inhaled_or_intranasal
[3] = Apparent permeability across basolateral to apical side in human Caco-2 cells at 10 uM and measured after 2 hrs by LC-MS/MS analysis; format: ADME, cell-based
Trachea [4] = experiment: (§1) Bifunctional antagonist activity at muscarinic M3 receptor /agonist activity at beta-2 adrenoceptor in Dunkin-Hartley guinea pig trachea assessed as inhibition of acetylcholine-induced bronchoconstriction at 0.1 nmol/Kg, IT(Intratracheal) measured after 30 mins by Konzett-Roessler methodology relative to control; format: functional; settings: Cavia porcellus, 0.5 h
[5] = Half life in Dunkin-Hartley guinea pig plasma at 500 nmol/Kg, IT(Intratracheal) measured after 72 hrs by LC/MS-MS analysis; format: ADME, cell-free, Cavia porcellus; settings: inhaled or intranasal
[6] = Mutagenicity in Escherichia coli assessed as induction of reverse mutation by Ames test; format: toxicity
[7] = biological target: Sodium-dependent serotonin transporter (Homo sapiens) (UniProt P31645); experiment: Inhibition of serotonin transporter (unknown origin) at 10 uM relative to control
[8] = Toxicity in INH dosed dog assessed as maximum tolerated dose measured after 7 days; format: organism-based, Canis lupus familiaris; settings: in vivo, inhaled or intranasal, time 7 day
[9] = Cmax in Dunkin-Hartley guinea pig plasma at 500 nmol/Kg, IT(Intratracheal) measured after 72 hrs by LC/MS-MS analysis; format: ADME, cell-free, Cavia porcellus; set-up: dose 500 nmol/kg, time 72 hrs, route it(Intratracheal); settings: inhaled or intranasal
Trachea [10] = experiment: as §1, with “acetylcholine induced” for “acetylcholine-induced”, “1” for “0.1”, “1 hr” for “30 mins”; format: functional; settings: Cavia porcellus
[11] = AUClast in Dunkin-Hartley guinea pig plasma at 500 nmol/Kg, IT(Intratracheal) measured after 72 hrs by LC/MS-MS analysis; format: ADME, cell-free, Cavia porcellus; set-up: time 72 hrs, dose 500 nmol/kg, route it(Intratracheal); settings: inhaled or intranasal
[12] = AUCinfinity in Dunkin-Hartley guinea pig plasma at 500 nmol/Kg, IT(Intratracheal) measured after 72 hrs by LC/MS-MS analysis; format: ADME, cell-free, Cavia porcellus; set-up: dose 500 nmol/kg, time 72 hrs, route it(Intratracheal); settings: inhaled or intranasal
[13] = biological target: D(2) dopamine receptor (Homo sapiens) (UniProt P14416); experiment: Inhibition of dopamine D2 receptor (unknown origin) at 10 uM relative to control
[14] = biological target: T1, 5-hydroxytryptamine receptor 2C (Homo sapiens) (UniProt P28335); experiment: Inhibition of 5-HT2c (unknown origin) at 10 uM relative to control
T1 sequence (whole entry): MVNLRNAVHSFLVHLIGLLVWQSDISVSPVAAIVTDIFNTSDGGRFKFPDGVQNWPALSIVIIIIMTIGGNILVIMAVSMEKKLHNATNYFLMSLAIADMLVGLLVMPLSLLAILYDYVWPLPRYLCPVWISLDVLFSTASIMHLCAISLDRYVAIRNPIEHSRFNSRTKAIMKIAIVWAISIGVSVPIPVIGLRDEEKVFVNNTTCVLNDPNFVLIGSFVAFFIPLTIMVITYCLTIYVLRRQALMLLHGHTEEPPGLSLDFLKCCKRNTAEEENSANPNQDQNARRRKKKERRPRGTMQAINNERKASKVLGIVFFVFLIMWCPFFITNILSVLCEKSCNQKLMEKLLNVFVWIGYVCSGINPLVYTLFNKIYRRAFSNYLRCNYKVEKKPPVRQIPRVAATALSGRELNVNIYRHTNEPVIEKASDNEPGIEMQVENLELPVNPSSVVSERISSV

[15] = Apparent permeability across apical to basolateral side in human Caco-2 cells at 10 uM and measured after 2 hrs by LC-MS/MS analysis; format: ADME, cell-based
Trachea [16] = experiment: as §1, with “5” for “30”; format: functional; settings: Cavia porcellus
[17] = biological target: 5-hydroxytryptamine receptor 1B (Homo sapiens) (UniProt P28222); experiment: Inhibition of 5-HT1B receptor (unknown origin) at 10 uM relative to control
Sequence of 5-hydroxytryptamine receptor 1B (Homo sapiens) (P28222 whole entry): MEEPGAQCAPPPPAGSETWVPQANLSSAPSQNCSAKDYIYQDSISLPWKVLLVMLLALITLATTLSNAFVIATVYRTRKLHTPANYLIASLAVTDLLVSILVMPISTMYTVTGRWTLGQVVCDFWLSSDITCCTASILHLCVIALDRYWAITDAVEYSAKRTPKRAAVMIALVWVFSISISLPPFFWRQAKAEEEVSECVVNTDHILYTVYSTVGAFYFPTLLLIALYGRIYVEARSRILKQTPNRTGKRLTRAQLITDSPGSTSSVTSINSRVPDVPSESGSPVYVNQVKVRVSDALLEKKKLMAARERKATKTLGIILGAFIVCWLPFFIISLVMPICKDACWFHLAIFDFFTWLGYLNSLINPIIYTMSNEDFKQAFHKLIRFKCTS

Sequence of 5-hydroxytryptamine receptor 2A (Homo sapiens) (P28223 whole entry): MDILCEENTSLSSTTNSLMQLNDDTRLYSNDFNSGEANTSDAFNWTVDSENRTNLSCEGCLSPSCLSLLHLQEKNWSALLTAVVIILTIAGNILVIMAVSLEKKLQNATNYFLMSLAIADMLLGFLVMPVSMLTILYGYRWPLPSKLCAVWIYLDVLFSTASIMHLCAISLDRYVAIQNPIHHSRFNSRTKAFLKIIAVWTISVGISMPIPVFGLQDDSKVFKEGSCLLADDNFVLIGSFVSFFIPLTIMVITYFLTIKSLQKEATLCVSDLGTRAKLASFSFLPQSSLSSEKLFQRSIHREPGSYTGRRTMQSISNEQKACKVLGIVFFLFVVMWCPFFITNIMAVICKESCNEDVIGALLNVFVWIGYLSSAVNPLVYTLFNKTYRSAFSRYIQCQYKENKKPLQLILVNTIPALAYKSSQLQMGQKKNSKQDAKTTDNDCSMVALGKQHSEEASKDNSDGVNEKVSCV
Sequence of Sodium-dependent serotonin transporter (Homo sapiens) (P31645 whole entry, looked up): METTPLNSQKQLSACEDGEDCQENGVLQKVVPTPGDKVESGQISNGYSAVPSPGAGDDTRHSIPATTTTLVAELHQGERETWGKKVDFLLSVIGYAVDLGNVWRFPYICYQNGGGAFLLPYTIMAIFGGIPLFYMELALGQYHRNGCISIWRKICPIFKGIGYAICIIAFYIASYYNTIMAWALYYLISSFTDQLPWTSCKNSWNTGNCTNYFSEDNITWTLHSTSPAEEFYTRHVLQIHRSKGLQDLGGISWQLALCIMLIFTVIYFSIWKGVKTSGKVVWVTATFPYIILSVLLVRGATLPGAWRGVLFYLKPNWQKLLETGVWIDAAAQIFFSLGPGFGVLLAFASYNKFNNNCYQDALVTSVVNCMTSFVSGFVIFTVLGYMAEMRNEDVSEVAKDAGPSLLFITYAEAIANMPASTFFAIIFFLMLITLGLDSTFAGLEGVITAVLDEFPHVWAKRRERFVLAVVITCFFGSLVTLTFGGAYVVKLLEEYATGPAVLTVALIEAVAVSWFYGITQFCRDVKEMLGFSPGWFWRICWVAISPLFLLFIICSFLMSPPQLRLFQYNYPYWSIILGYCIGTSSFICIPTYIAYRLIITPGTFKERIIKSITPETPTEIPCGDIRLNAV
Sequence of D(2) dopamine receptor (Homo sapiens) (P14416 whole entry): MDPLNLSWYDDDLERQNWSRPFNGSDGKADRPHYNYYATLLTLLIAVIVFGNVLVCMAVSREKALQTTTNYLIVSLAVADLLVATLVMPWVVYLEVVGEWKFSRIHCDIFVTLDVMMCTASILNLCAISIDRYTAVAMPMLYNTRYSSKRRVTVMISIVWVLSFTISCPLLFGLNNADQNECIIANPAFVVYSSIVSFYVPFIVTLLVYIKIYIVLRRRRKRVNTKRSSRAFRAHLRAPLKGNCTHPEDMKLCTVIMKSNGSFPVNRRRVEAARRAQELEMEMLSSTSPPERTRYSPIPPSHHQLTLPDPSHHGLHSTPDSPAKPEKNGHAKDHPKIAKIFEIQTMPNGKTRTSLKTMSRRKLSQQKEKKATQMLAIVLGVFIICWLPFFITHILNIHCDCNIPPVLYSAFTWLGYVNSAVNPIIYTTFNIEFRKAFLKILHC

Cn1nc(C(=O)OCCCCNC[C@H](O)c2ccc(O)c3[nH]c(=O)ccc23)cc1COc1cccc([C@@H](NC(=O)O[C@H]2CN3CCC2CC3)c2ccccc2)c1
inhibition [1]: > 65% | AUClast [2]: 460361 ng·h/g | Papp B→A at 2 h, 10 µM [3]: 1.5 ×10⁻⁶ cm/s | inhibition in vivo at 0.0001 µmol/kg (Trachea [4]): 33.1% | half-life [5]: 15.4 h | Activity [6]: Non-Toxic | inhibition [7]: > 65% | MTD at 168 h [8]: 0.124 mg/kg/day | Cmax [9]: 126 ng/g | inhibition in vivo at 0.001 µmol/kg (Trachea [10]): 92.4% | AUC(0-t) at 72 h [11]: 460 ng·h/mL | AUC(0-inf) [12]: 661 ng·h/mL | inhibition [13]: > 65% | inhibition [14]: > 65% | Papp A→B at 2 h, 10 µM [15]: 2.4 ×10⁻⁶ cm/s | inhibition in vivo at 0.0001 µmol/kg (Trachea [16]): 9.7% | inhibition [17]: > 65%
